We go through four compounds from patent publication EP0949238A1, “SUBSTITUTED PROPIONYL DERIVATIVES” (DAIICHI PHARMACEUTICAL CO., LTD., priority 1996, dated 1998).

In one experiment the test system is rat liver cells. Kind of experiment: Cholesterol synthesis inhibitory activity in rat liver cells ([14C]-acetic acid uptake in cholesterol). The class given is cell-based. Conditions: concentration inhibiting 50% of [14C] acetic acid radioactivity uptake into cholesterol; SD rat liver cells; read-out: Cholesterol synthesis inhibitory action in rat liver cells IC50 (10^-6M). How it is done:
Liver cells were isolated from rat livers by the in situ collagenase perfusion method. Described specifically, a 6-week-old male SD rat was intraperitoneally administered with a 50 mg/ml pentobarbital sodium solution and thereby anesthetized. After ventrotomy and cannulation from the portal vein, the rat was sacrificed under exsanguination by the excision of the lower large vein. From the cannula, a Hanks solution (pH 7.2) containing 2% albumin, 0.5 mM ethyleneglycolbis(2-aminoethylether) tetraacetate (EGTA) and 10 mM HEPES and being free from a divalent calcium ion and a divalent magnesium ion was subjected to perfusion (flow rate: 0.5 ml/sec) for 5 minutes. The Hanks solution was then changed to another Hanks solution (pH 7.5) having 0.05% collagenase, 4 mM calcium chloride and 10 mM HEPES added thereto and perfusion was continued for further 15 to 20 minutes. After confirmation of the sufficient digestion by collagenase, the liver tissue was placed on a Petri dish, 30 ml of a Dulbeco's modified Eagle's (DEM) medium was added thereto and cells were dispersed by drawing through suction. A cell filter was employed to remove the undigested tissue. The resulting cell suspension was subjected to centrifugal separation at 600 rpm for 1 minute. A 30 ml of DME medium was added to the sediment to disperse the cells, followed by centrifugal separation at 600 rpm for 1 minute. After these washing procedures by centrifugation were repeated three times in total, the liver cell suspension was suspended in a DME medium containing 10% of lipoprotein deficient serum (LPDS). The resulting suspension was seeded on a commercially-available 6-well plate coated with collagen at a cell density of 1 x 10^6 cells per well, followed by incubation overnight in a CO2 incubator (5% CO2 gas, 37°C).
The uptake of [^14C]-acetic acid radioactivity in cholesterol was measured using the liver cells prepared in the above-described manner and the cholesterol synthesis inhibitory activity of the test medicament was evaluated.
Described specifically, the cell culture medium of the liver cells was replaced by a 25 mM HEPES-10% LPDS-DME medium (pH 7.4) containing the test medicament, followed by incubation for one hour in a CO2 incubator. Then, [^14C] sodium acetate was added to give the final concentration of 1 µCi/ml. After incubation for further one hour in the CO2 incubator, the cell culture medium was removed. The cells were washed three times with a phosphate buffered saline (pH 7.2) and then dissolved in 1 ml of a 0.1N aqueous sodium hydroxide solution. […] To the vial, 10 ml of Aquasol 2 was added and ^14C and ^3H radioactivities were counted by a liquid scintillation counter.
The cholesterol synthesis inhibitory activity of the test medicament was calculated in the below-described procedures. […]

The next experiment deals with T1, squalene synthetase (Homo sapiens, UniProt P37268).
T1 construct: 0.01 to 0.1 µg of the HepG2 cell microsome preparation; endogenous in cells; host or cells: HepG2 cells (microsome fraction)
T1 sequence (P37268 1-417): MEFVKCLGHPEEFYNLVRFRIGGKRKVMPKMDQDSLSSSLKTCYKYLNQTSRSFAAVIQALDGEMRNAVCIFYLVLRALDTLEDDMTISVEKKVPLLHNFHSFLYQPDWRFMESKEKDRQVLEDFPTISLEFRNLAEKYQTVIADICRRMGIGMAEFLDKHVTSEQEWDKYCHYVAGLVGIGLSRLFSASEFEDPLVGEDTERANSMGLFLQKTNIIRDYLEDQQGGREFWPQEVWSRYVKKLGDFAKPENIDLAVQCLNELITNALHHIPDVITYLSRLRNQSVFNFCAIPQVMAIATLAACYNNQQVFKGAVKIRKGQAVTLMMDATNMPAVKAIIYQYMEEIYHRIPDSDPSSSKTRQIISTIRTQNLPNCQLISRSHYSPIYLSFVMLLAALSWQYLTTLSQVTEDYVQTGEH
Kind of experiment: Squalene synthetase inhibitory activity (HepG2 cell microsome fraction, [3H]farnesyl pyrophosphate incorporation into squalene). Format: biochemical. To be noted: HepG2 cell microsome preparation, 5 µM [3H]farnesyl pyrophosphate, 37°C for 20 minutes. The method, then: As an enzyme source to measure squalane synthetase activity, we prepared a microsome fraction from a human hepatoma-derived cell line, HepG2 cells, according to the method described by Schechter et al. (Journal of Biological Chemistry, Vol. 267, pp.8628-8635, 1992).
Described specifically, HepG2 cells were first homogenized in the presence of a 10 mM N-2-hydroxyethylpiperazin-N'-2-ethanesulfonate (HEPES) buffer containing 0.3M sucrose, 1 mM dithiothreitol (DTT), 1 mM sodium ethylenediaminetetraacetate (EDT) and various protease inhibitors and adjusted to pH 7.4. The resulting mixture was subjected to centrifugal separation at 2,000 x g for 5 minutes and then 10,000 x g for 15 minutes. The protease inhibitors employed were phenylmethanesulfonyl fluoride (PMSF), leupeptin and aprotinin, which were added to give the final concentration of 1 mM, 10 µM and 5 µg/ml, respectively. The supernatant after centrifugation was centrifuged further at 105,000 xg for 60 minutes. The precipitate thus obtained was suspended in a 20 mM phosphate buffer (pH 7.4) containing 1 mM DTT, 1 mM EDTA and the above-described protease inhibitors and the resulting suspension was washed twice by centrifugation at 105,000 x g for 30 minutes. The precipitate was then suspended in a 20 mM phosphate buffer (pH 7.4) containing 1 mM DTT and 1 mM EDTA and the resulting suspension was similarly centrifuged. […]

Regarding `C[C@H](NC(=O)C[C@@H](CC(=O)O)C(=O)O)[C@@H](Cc1ccc(Cl)c(Cl)c1)OC(=O)c1ccc2ccccc2c1` [Compound A, (2S)-2-[N-{(1S,2R)-3-(3,4-dichlorophenyl)-1-methyl-2-(2-naphthoyloxy)propyl}carbamoylmethyl] succinic acid, reference compound], the IC50 in the experiment on rat liver cells came to 0.32 µM.
Still for that read-out and setting: the value for `CC(C)(C)CN1C(=O)[C@@H](CC(=O)NCC(=O)O)O[C@H](c2ccccc2Cl)c2cc(Cl)ccc21` [Compound B, N-[(3R,5S)-7-chloro-5-(2-chlorophenyl)-1-neopentyl-2-oxo-1,2,3,5-tetrahydro-4,1-benzoxazepin-3-acetyl] aminoacetic acid, reference compound] was 0.39 µM.
As to `O=C(O)CO[C@@H](C(=O)O)[C@@H](OCCCCCc1ccc2ccccc2c1)C(=O)NCCCCCc1ccc2ccccc2c1` [Example 1, (2R,3R)-2-Carboxymethoxy-3-[N-[5-(2-naphthyl)pentyl]carbamoyl]-3-[5-(2-naphthyl)pentyloxy]propionic acid], the results for the IC50 in the experiment with rat liver cells and on squalene synthetase were 0.15 µM and 0.0003 µM, respectively.
On to `CN(CCCCCc1ccc2ccccc2c1)C(=O)[C@H](OCCCCNc1ccc2c(c1)CCC2)[C@@H](OCC(=O)O)C(=O)O` [Example 48, (2R,3R)-2-Carboxymethoxy-3-[4-(5-indanylamino)butoxy]-3-[N-methyl-N-[5-(2-naphthyl)pentyl]carbamoyl]propionic acid], for which the IC50 in the experiment on rat liver cells came out at 0.019 µM.

By IC50 is commonly meant the midpoint of a concentration-inhibition curve.
